# Test results reported in the Deep4Chem optical property database.
# Experiment: solvent given as SMILES
# Conditions: in C1CCCCC1
row,Structure (SMILES),emission maximum
1,c1ccc(N(c2ccccc2)c2ccc3c4cccc5c(N(c6ccccc6)c6ccccc6)ccc(c6cccc2c63)c54)cc1,531 nm
2,COc1ccc2c(c1)C(=O)c1ccccc1-2,518 nm
3,COc1cc(OC)c2c(c1)C(=O)c1ccccc1-2,537 nm
4,COc1ccc(-c2ccc(-c3ccc(C#N)s3)s2)cc1,445 nm
5,COC(=O)c1ccc(C2=C3C=CC(C)=[N+]3[B-](F)(F)n3c(C)ccc32)cc1,533 nm
6,CC(C)CCC[C@@H](C)[C@H]1CC[C@H]2[C@@H]3CC=C4C[C@@H](OC(=O)Oc5cc(/C=C/c6ccc(N(C)C)cc6)ccc5[N+](=O)[O-])CC[C@]4(C)[C@H]3CC[C@]12C,503 nm

# Same assay, conditions: in C1CCOC1
row,Structure (SMILES),emission maximum
1,Cc1cc(-n2c3ccccc3c3ccccc32)ccc1-c1ccc(S(=O)(=O)c2ccccc2)cc1C,401.77 nm
2,c1ccc(N(c2ccccc2)c2ccc3c4cccc5c(N(c6ccccc6)c6ccccc6)ccc(c6cccc2c63)c54)cc1,545 nm
3,COc1ccc(-c2cc3oc(=O)cc(C)c3cc2-c2ccc(OC)c(OC)c2)cc1OC,457 nm
4,O=P1(c2ccccc2)C(c2ccc(N(c3ccccc3)c3ccccc3)cc2)=Cc2ccccc21 (stereo not given),521 nm
5,CCC1=C(C)C2=C(c3cc(C(=O)Cl)cc(C4=C5C(C)=C(CC)C(C)=[N+]5[B-](F)(F)n5c(C)c(CC)c(C)c54)c3)c3c(C)c(CC)c(C)n3[B-](F)(F)[N+]2=C1C,549 nm
6,N#Cc1c(N2CCCCC2)cc(-c2ccc3ccc4cccc5ccc2c3c45)c2c1-c1ccccc1C2=O,528 nm
7,C(=C\c1cnc2ccccc2n1)/c1ccc(N2CCCCC2)cc1,557 nm
8,O=C(c1ccc(C(=C(c2ccccc2)c2ccccc2)c2ccccc2)cc1)c1ccc(-n2c3ccccc3c3ccccc32)cc1,496 nm
9,COC(=O)c1ccc(C2=C3C=CC(C)=[N+]3[B-](F)(F)n3c(C)ccc32)cc1,536 nm

# Same assay, conditions: in C1COCCO1
row,Structure (SMILES),emission maximum
1,CN(C)c1ccc(-c2ccc3n2[B-](F)(F)[N+]2=C(c4ccccc4)C=CC2=C3C(F)(F)F)cc1,756 nm
2,COc1ccc(-c2ccc(-c3ccc(C#N)s3)s2)cc1,455 nm
3,CC(C)CCC[C@@H](C)[C@H]1CC[C@H]2[C@@H]3CC=C4C[C@@H](OC(=O)Oc5cc(/C=C/c6ccc(N(C)C)cc6)ccc5[N+](=O)[O-])CC[C@]4(C)[C@H]3CC[C@]12C,573 nm

# Same assay, conditions: in CC#N
row,Structure (SMILES),emission maximum
1,CN(C)c1ccc(-c2ccc3n2[B-](F)(F)[N+]2=C(c4ccccc4)C=CC2=C3C(F)(F)F)cc1,772 nm
2,Cc1cc(-n2c3ccccc3c3ccccc32)ccc1-c1ccc(S(=O)(=O)c2ccccc2)cc1C,450.48 nm
3,c1ccc(N(c2ccccc2)c2ccc3c4cccc5c(N(c6ccccc6)c6ccccc6)ccc(c6cccc2c63)c54)cc1,548 nm
4,COc1ccc2c(c1)C(=O)c1ccccc1-2,568 nm
5,O=P1(c2ccccc2)C(c2ccc(N(c3ccccc3)c3ccccc3)cc2)=Cc2ccccc21 (stereo not given),577 nm
6,CCOC(=O)c1c2c3c(ccc([N+](=O)[O-])c3c3cc4c(cc13)[Si](C)(C)O[Si]4(C)C)N(C)C2=O,413 nm
7,CCOC(=O)c1ccc2nc(/N=N/c3ccc(N(CC)CC)cc3)sc2c1,582 nm
8,CCC1=C(C)C2=C(c3cc(C(=O)Cl)cc(C4=C5C(C)=C(CC)C(C)=[N+]5[B-](F)(F)n5c(C)c(CC)c(C)c54)c3)c3c(C)c(CC)c(C)n3[B-](F)(F)[N+]2=C1C,548 nm
9,O=c1oc2ccccc2cc1-c1ccc(-c2cc3ccccc3oc2=O)cc1,426 nm
10,C(=C\c1cnc2ccccc2n1)/c1ccc(N2CCCCC2)cc1,617 nm
11,c1ccc2c(c1)c1ccccc1n2-c1ccc(-c2ccc(-c3ccc(-n4c5ccccc5c5ccccc54)nc3-n3c4ccccc4c4ccccc43)nn2)c(-n2c3ccccc3c3ccccc32)n1,474.18 nm
12,c1ccc(Nc2nc(Nc3ccccc3)nc(Nc3cc4ccc5cccc6ccc(c3)c4c56)n2)cc1,398 nm
13,c1ccc(N(c2ccccc2)c2ccc(-c3nc4ccccc4n3-c3ccccc3)cc2)cc1,444 nm
14,Cc1ccc(C#Cc2ccc3ccc(=O)oc3c2)cc1,440 nm
15,COc1cc(OC)c2c(c1)C(=O)c1ccccc1-2,592 nm
16,COc1ccc(-c2ccc(-c3ccc(C#N)s3)s2)cc1,476 nm
17,COC(=O)c1ccc(C2=C3C=CC(C)=[N+]3[B-](F)(F)n3c(C)ccc32)cc1,531 nm
18,COC(=O)c1c(NC(C)(C)C)oc(-c2ccc(-c3ccccc3)cc2)c1C(=O)OC,446 nm

# Same assay, conditions: in CC(C)=O
row,Structure (SMILES),emission maximum
1,CCN(CC)c1ccc2ccc(=O)oc2c1,430 nm

# Same assay, conditions: in CC(C)O
row,Structure (SMILES),emission maximum
1,COc1ccc(-c2ccc(-c3ccc(C#N)s3)s2)cc1,471 nm

# Same assay, conditions: in CCCCCC
row,Structure (SMILES),emission maximum
1,CN(C)c1ccc(-c2ccc3n2[B-](F)(F)[N+]2=C(c4ccccc4)C=CC2=C3C(F)(F)F)cc1,696 nm
2,CCN(CC)c1ccc2ccc(=O)oc2c1,392 nm

# Same assay, conditions: in CCCCCCC
row,Structure (SMILES),emission maximum
1,C(=C\c1cnc2ccccc2n1)/c1ccc(N2CCCCC2)cc1,480 nm
2,CCN(CC)c1ccc2ccc(=O)oc2c1,390 nm
3,CC(C)CCC[C@@H](C)[C@H]1CC[C@H]2[C@@H]3CC=C4C[C@@H](OC(=O)Oc5cc(/C=C/c6ccc(N(C)C)cc6)ccc5[N+](=O)[O-])CC[C@]4(C)[C@H]3CC[C@]12C,503 nm

# Same assay, conditions: in CCCCO
row,Structure (SMILES),emission maximum
1,CN(C)c1ccc(-c2ccc3n2[B-](F)(F)[N+]2=C(c4ccccc4)C=CC2=C3C(F)(F)F)cc1,745 nm
2,CCN(CC)c1ccc2ccc(=O)oc2c1,442 nm
3,COc1ccc(-c2ccc(-c3ccc(C#N)s3)s2)cc1,471 nm

# Same assay, conditions: in CCCCOCCCC
row,Structure (SMILES),emission maximum
1,CN(C)c1ccc(-c2ccc3n2[B-](F)(F)[N+]2=C(c4ccccc4)C=CC2=C3C(F)(F)F)cc1,728 nm
2,c1ccc(Nc2nc(Nc3ccccc3)nc(Nc3cc4ccc5cccc6ccc(c3)c4c56)n2)cc1,397 nm

# Same assay, conditions: in CCCO
row,Structure (SMILES),emission maximum
1,CCN(CC)c1ccc2ccc(=O)oc2c1,442 nm

# Same assay, conditions: in CCO
row,Structure (SMILES),emission maximum
1,CN(C)c1ccc(-c2ccc3n2[B-](F)(F)[N+]2=C(c4ccccc4)C=CC2=C3C(F)(F)F)cc1,750 nm
2,O=c1oc2ccccc2cc1-c1ccc(-c2cc3ccccc3oc2=O)cc1,426 nm
3,CCN(CC)c1ccc2ccc(=O)oc2c1,443 nm
4,Cc1ccccc1-c1c2ccc(=[N+]3CCCC3)cc-2oc2cc(N3CCCC3)ccc12,576 nm
5,COc1ccc(-c2ccc(-c3ccc(C#N)s3)s2)cc1,474 nm
6,CNc1ccc2nc3cc(Cl)c(Cl)cc3nc2c1,599 nm

# Same assay, conditions: in CCOC(C)=O
row,Structure (SMILES),emission maximum
1,CN(C)c1ccc(-c2ccc3n2[B-](F)(F)[N+]2=C(c4ccccc4)C=CC2=C3C(F)(F)F)cc1,755 nm
2,CCn1c(-c2ccc(N(c3ccccc3)c3cccc4ccccc34)cc2)c(-c2ccc3ccccc3c2)c(-c2ccc3ccccc3c2)c1-c1ccc(N(c2ccccc2)c2cccc3ccccc23)cc1,434 nm
3,O=c1oc2ccccc2cc1-c1ccc(-c2cc3ccccc3oc2=O)cc1,426 nm
4,COc1ccc(-c2ccc(-c3ccc(C#N)s3)s2)cc1,461 nm
5,COC(=O)c1ccc(C2=C3C=CC(C)=[N+]3[B-](F)(F)n3c(C)ccc32)cc1,533 nm

# Same assay, conditions: in CCOCC
row,Structure (SMILES),emission maximum
1,CCN(CC)c1ccc2ccc(=O)oc2c1,405 nm

# Same assay, conditions: in CN(C)C=O
row,Structure (SMILES),emission maximum
1,NCCCCCCCCCCCCN1C(=O)c2ccc3c4ccc5c6c(ccc(c7ccc(c2c37)C1=O)c64)C(=O)N(CCCCCCCCCCCCN)C5=O,537 nm
2,O=P1(c2ccccc2)C(c2ccc(N(c3ccccc3)c3ccccc3)cc2)=Cc2ccccc21 (stereo not given),566 nm
3,CCC1=C(C)C2=C(c3cc(C(=O)Cl)cc(C4=C5C(C)=C(CC)C(C)=[N+]5[B-](F)(F)n5c(C)c(CC)c(C)c54)c3)c3c(C)c(CC)c(C)n3[B-](F)(F)[N+]2=C1C,560 nm
4,CCN(CC)c1ccc2ccc(=O)oc2c1,440 nm
